Reference: US9776990B2, “Isoindolone derivatives” (AbbVie Inc., priority 2012, dated 2017)
pEC50, pKi: −log10 of the molar value.

Legend:
[1] = tested on: LPS induced IL-6 production; experiment: LPS (lipopolysaccharide) induced IL-6 production mouse assay; format: in vivo; settings: mice, 3 mg/kg (PO), one hour before LPS, serum 2 hours after LPS
Experimental: Compounds of the Examples listed in Table 8 were assayed for their ability to inhibit LPS (lipopolysaccharide) induced IL-6 production in mice. Severe combined immunodeficient female mice (8 per group) received an intraperitoneal challenge of lipopolysaccharide (2.5 mg/kg, L2630 E. coli 0111:B4) one hour after oral administration (PO) or intraperitoneal administration (IP) of compounds in a solution of 2% ethanol, 5% Tween-80, 20% PEG-400 and 73% (0.2% hydroxypropylmethylcellulose in water). Mice were euthanized 2 hours after lipopolysaccharide injection, blood was removed by cardiac puncture, and then the serum harvested from the blood samples was frozen at −80° C. On the day of the assay the serum samples were brought to room temperature and then diluted 1:20 in phosphate-buffered saline containing 2% bovine serum albumin. Interleukin-6 measurements were performed using a cytokine assay from Meso Scale Discovery (Gaithersburg, Md.) for mouse serum analysis according to the manufacturer's protocol and read on a SECTOR Imager 6000 (Meso Scale Discovery, Gaithersburg, Md.) instrument. Statistical analysis was performed using Prism software (version 5.0) incorporating Dunnett's one way ANOVA. The IL-6 mean and standard deviation of the group of vehicle treated animals were compared with the IL-6 mean and standard deviation of the group treated with drug. A p value <0.05 means that there is less than a 5% probability that the mean values in the two groups are equal.

BRD4 (BDII_E352-M457) = BRD4 (BDII_E352-M457) (Homo sapiens (Human), UniProt O60885); experiment: TR-FRET bromodomain binding assay, BRD4 second bromodomain; settings: His-tagged BD2, 30 nM Alexa647 probe
Experimental: (§1) A time-resolved fluorescence resonance energy transfer (TR-FRET) assay was used to determine the affinities of compounds of the Examples listed in Table 1 for each bromodomain of BRD4. His-tagged first (BD1: amino acids K57-E168) and second (BD2: amino acids E352-E168) bromodomains of BRD4 were expressed and purified. An Alexa647-labeled BET-inhibitor was used as the fluorescent probe in the assay.
(§2) Compound dilution series were prepared in DMSO via a 3-fold serial dilution from 2.5 mM to 42 nM. Compounds were then diluted 6:100 in assay buffer (20 mM Sodium Phosphate, pH 6.0, 50 mM NaCl, 1 mM EDTA, 0.01% Triton X-100, 1 mM DTT) to yield 3× working solutions. Six microliters (μL) of the working solution was then transferred to white, low-volume assay plates (Costar #3673). A 1.5× assay mixture containing His-tagged bromodomain, Europium-conjugated anti-His antibody (Invitrogen PV5596) and the Alexa-647-conjugated probe molecule was also prepared. Twelve μL of this solution were added to the assay plate to reach a final volume of 18 μL. The final concentration of 1× assay buffer contains 2% DMSO, 50 μM−0.85 nM compound, 8 nM bromodomain, 1 nM antibody and 100 or 30 nM probe (for BDI or BDII, respectively). After a one-hour incubation at room temperature, TR-FRET ratios were determined using an Envision multilabel plate reader (Ex 340, Em 495/520).
(§3) TR-FRET data were normalized to the means of 24 no-compound controls (“high”) and 8 controls containing 1 μM un-labeled probe (“low”). Percent inhibition was plotted as a function of compound concentration and the data were fit with the 4 parameter logistic equation to obtain IC50s Inhibition constants (Ki) were calculated from the IC50s, probe Kd and probe concentration. Typical Z′ values were between 0.65 and 0.75. The minimum significant ratio was determined to evaluate assay reproducibility (Eastwood et al., (2006) J Biomol Screen, 11: 253-261). The MSR was determined to be 2.03 for BDI and 1.93 for BDII, and a moving MSR (last six run MSR overtime) for both BDI and BDII was typically <3.

BRD4 (BDI_K57-E168) = BRD4 (BDI_K57-E168) (Homo sapiens (Human), UniProt O60885); experiment: TR-FRET bromodomain binding assay, BRD4 first bromodomain; settings: His-tagged BD1, 100 nM Alexa647 probe
Experimental: as §1, §2, §3

[2] = tested on: breast cancer cell line MX-1; experiment: MX-1 cell line proliferation assay (3-day, Cell Titer Glo); format: cell-based, human; settings: Homo sapiens, MX1, MX-1 cells, 72 hours, read-out: Cellular proliferation: EC50
Experimental: The impact of compounds of the Examples on cancer cell proliferation was determined using the breast cancer cell line MX-1 (ATCC) in a 3-day proliferation assay. MX-1 cells were maintained in RPMI supplemented with 10% FBS at 37 C.° and an atmosphere of 5% CO2. For compound testing, MX-1 cells were plated in 96-well black bottom plates at a density of 5000 cells/well in 90 μl of culture media and incubated at 37° overnight to allow cell adhesion and spreading. Compound dilution series were prepared in DMSO via a 3-fold serial dilution from 3 mM to 0.1 μM. The DMSO dilution series were then diluted 1:100 in phosphate buffered saline, and 10 μL of the resulted solution were added to the appropriate wells of the MX-1 cell plate. The final compound concentrations in the wells were 3, 1, 0.3, 0.1, 0.03, 0.01, 0.003, 0.001, 0.0003 and 0.0001 μM.
Luminescence readings from the Cell Titer Glo assay were normalized to the DMSO treated cells and analyzed using the GraphPad Prism software with sigmoidal curve fitting to obtain EC50s. The minimum significant ratio (MSR) was determined to evaluate assay reproducibility (Eastwood et al., (2006) J Biomol Screen, 11: 253-261).

Structure (SMILES) | pKi (BRD4 (BDII_E352-M457)) | pKi (BRD4 (BDI_K57-E168)) | pEC50 [2] | % inhibition of LPS induced IL-6 production [1]
Cc1[nH]c(-c2cc(N)ccc2Oc2ccc(F)cc2F)c2c1C(=O)CCC2 [Example 45, 1-[5-amino-2-(2,4-difluorophenoxy)phenyl]-3-methyl-2,5,6,7-tetrahydro-4H-isoindol-4-one] | 6.70 | 7.40 | 6.48 | 
CC(=O)Nc1ccc(Oc2ccc(F)cc2F)c(-c2[nH]c(C)c3c2CCCC3=O)c1 [Example 50, N-[4-(2,4-difluorophenoxy)-3-(3-methyl-4-oxo-4,5,6,7-tetrahydro-2H-isoindol-1-yl)phenyl]acetamide] | 6.26 | 7.15 | 6.22 | 
Cc1[nH]c(-c2cc(NS(C)(=O)=O)ccc2Sc2ccccc2)c2c1C(=O)CCC2 [Example 44, N-[3-(3-methyl-4-oxo-4,5,6,7-tetrahydro-2H-isoindol-1-yl)-4-(phenylsulfanyl)phenyl]methanesulfonamide] | 7.43 | 7.17 | 6.19 | 
Cc1[nH]c(-c2cc(NS(C)(=O)=O)ccc2Oc2ccccc2)c2c1C(=O)CC(CC(C)C)C2 (stereo not shown) [Example 69, N-{3-[3-methyl-6-(2-methylpropyl)-4-oxo-4,5,6,7-tetrahydro-2H-isoindol-1-yl]-4-phenoxyphenyl}methanesulfonamide] | 5.68 | 6.82 | 6.22 | 
Cc1[nH]c(-c2cc(N)ccc2Oc2ccccc2)c2c1C(=O)CCC2 [Example 39, 1-(5-amino-2-phenoxyphenyl)-3-methyl-2,5,6,7-tetrahydro-4H-isoindol-4-one] | 6.44 | 6.83 | 6.63 | 

Continued, in another order:

pKi (BRD4 (BDII_E352-M457)) | pKi (BRD4 (BDI_K57-E168)) | pEC50 [2] | Structure (SMILES) | % inhibition of LPS induced IL-6 production [1]
7.72 | 7.96 | 6.71 | CCS(=O)(=O)Nc1ccc(Oc2ccc(F)cc2F)c(-c2[nH]c(C)c3c2CCCC3=O)c1 [Example 47, N-[4-(2,4-difluorophenoxy)-3-(3-methyl-4-oxo-4,5,6,7-tetrahydro-2H-isoindol-1-yl)phenyl]ethanesulfonamide] | 33.0 at 3 mg/kg (PO) %
5.69 | 5.85 | 5.43 | Cc1[nH]c(-c2ccc(S(N)(=O)=O)cc2)c2c1C(=O)CCC2 [Example 5, 4-(3-methyl-4-oxo-4,5,6,7-tetrahydro-2H-isoindol-1-yl)benzenesulfonamide] | 
6.42 | 6.74 | 5.75 | Cc1[nH]c(-c2ccccc2Oc2ccccc2)c2c1C(=O)CC(C)C2 (stereo not shown) [Example 65, 3,6-dimethyl-1-(2-phenoxyphenyl)-2,5,6,7-tetrahydro-4H-isoindol-4-one] | 
5.42 | 5.84 | 5.60 | Cc1[nH]c(-c2ccc(S(C)(=O)=O)cc2)c2c1C(=O)CCC2 [Example 8, 3-methyl-1-[4-(methylsulfonyl)phenyl]-2,5,6,7-tetrahydro-4H-isoindol-4-one] | 
6.72 | 7.37 | 6.44 | Cc1[nH]c(-c2cc(NS(=O)(=O)N(C)C)ccc2Oc2ccc(F)cc2F)c2c1C(=O)CCC2 [Example 49, N′-[4-(2,4-difluorophenoxy)-3-(3-methyl-4-oxo-4,5,6,7-tetrahydro-2H-isoindol-1-yl)phenyl]-N,N-dimethylsulfuric Diamide] | 
